Columns and labels:
[1] = test system: Plasmodium falciparum; test: Hit confirmation in dose-response curve in NF54 nanoGlo assay, at 72h; format: functional, organism-based, Erythrocyte; design: timepoint 72 hour; conditions: Plasmodium falciparum, NF54, Erythrocyte, 72 h
[2] = test system: Plasmodium falciparum; test: Hit confirmation in dose-response curve in NF54 pLDH assay, at 72h; format: functional, organism-based; design: timepoint 72 hour; conditions: NF54, Erythrocyte
[3] = test system: Plasmodium falciparum; test: Hit confirmation in dose-response curve in Dd2 pLDH assay, at 72h; format: functional, organism-based; design: timepoint 72 hour; conditions: Dd2, Erythrocyte
[4] = test system: Plasmodium falciparum; test: Hit confirmation in dose-response curve in NF54 nanoGlo assay, at 12h; format: functional, organism-based, Erythrocyte; design: timepoint 12 hour; conditions: Plasmodium falciparum, NF54, Erythrocyte, 12 h
[5] = Hit confirmation in dose-response curve in HepG2 cytotoxicity assay, at 72h; format: toxicity, cell-based; design: timepoint 72 hour; conditions: human, HepG2 cells

| SMILES | IC50 [1] [µM] | IC50 [2] [µM] | IC50 [3] [µM] | IC50 [4] [µM] | IC50 at 72 h [5] [µM] |
| --- | --- | --- | --- | --- | --- |
| Cc1ccc(OCC(=O)Nc2cc(C)nn2-c2nc3c(cnn3-c3ccc(C)c(C)c3)c(=O)[nH]2)cc1 | 2.09 | 4.07 | 6.92 | > 10 | > 10 |
| Cc1cc(=O)[nH]c(-n2nc(C3CC3)cc2NC(=O)C(C)(C)Oc2ccc(Cl)cc2)n1 | 1.1 | > 10 | 5.01 | > 10 | > 10 |
| COc1ccc2c(c1)[n+](CC(=O)c1ccc(-c3ccc(Br)cc3)cc1)c(CO)n2C | 1.91 | 5.62 | 5.37 | > 10 | > 10 |
| CCOc1cc(C(c2c(C)n(C)n(-c3ccccc3)c2=O)c2c(C)n(C)n(-c3ccccc3)c2=O)ccc1OCc1ccccc1 | 1.86 | 6.92 | 4.68 | 3.09 | > 10 |
| CCC(C)NCC(O)Cn1c(-c2ccccc2)c(-c2ccccc2)c2cc(C)ccc21 (stereo not given) | 1.02 | 2.57 | 2.75 | 1.51 | > 10 |
| COc1cc(CNCCCN2CCOCC2)ccc1OCc1ccc(Cl)cc1 | 2.88 | 4.47 | 2.95 | 6.03 | > 10 |
| Cn1nccc1/C=C1\CC2C3CCc4cc(O)ccc4C3CCC2(C)C1O (stereo not given) | > 10 | > 10 | > 10 | > 10 | > 10 |
| COc1ccc(Nc2nnc(-c3ccc(NC(=O)C(=O)NCCCn4ccnc4)cc3)s2)cc1 | 1.29 | 6.17 | 4.27 | 2.69 | > 10 |
| Clc1ccc(C[n+]2ccc(-c3nc4ccccc4o3)cc2)c(Cl)c1 | 0.575 | 0.603 | 0.525 | > 10 | > 10 |
| CCOc1ccc(-[n+]2cc(-c3ccccc3)n3c2CCC3)cc1 | 0.832 | 0.759 | 1 | > 10 | > 10 |
| COc1ccc(OC)c(NC(=O)CN2CCc3[nH]c4ccc(F)cc4c(=O)c3C2)c1 | 8.32 | > 10 | 7.94 | > 10 | > 10 |
| COc1ccc(-n2ncc3c(N)c4c(nc32)CCCC4=O)cc1 | 6.61 | > 10 | > 10 | 3.89 | > 10 |
| Brc1cccc(-c2ccc(-c3cc(-c4ccccc4)nnc3-c3ccccc3)o2)c1 | 6.61 | > 10 | > 10 | 2 | > 10 |
| COc1cccc(-c2nn(-c3nc(-c4ccccc4)cc(C(F)(F)F)n3)c(-c3cccc(OC)c3)c2Cl)c1 | 6.17 | 8.32 | > 10 | > 10 | > 10 |
| CC(C)c1cc(=O)[nH]c(-n2nc(C3CC3)cc2NC(=O)c2ccc(F)cc2)n1 | 0.708 | 6.46 | 2.82 | > 10 | 10 |
| COCCCn1c(NS(=O)(=O)c2ccccc2)c(S(=O)(=O)c2ccc(C)cc2)c2nc3ccccc3nc21 | 4.68 | > 10 | 8.91 | 6.17 | > 10 |
| CC(C)CC[C@@H](CCNC1CCN(C)CC1)c1ccc(Cl)cc1 | 1.66 | 2.4 | 2.19 | 2.82 | > 10 |
| CCOc1ccc2ccccc2c1C(=O)Nc1cc(C)nn1-c1nc2c(c(=O)[nH]1)CCC2 | 0.589 | 2 | 2.09 | > 10 | > 10 |
| CN1CCC(NCC[C@@H](Cc2ccccc2Cl)c2ccc(Cl)cc2)CC1 | 1.51 | 2.57 | 2.24 | 2.45 | > 10 |
| O=C(CCn1c(=O)[nH]c2ccsc2c1=O)NCc1ccccc1 | 9.12 | > 10 | > 10 | > 10 | > 10 |
| O=C(Nc1onc2c1CCC2)c1ccc2ccccc2c1 | 2.82 | 4.79 | 4.27 | 3.02 | 4.07 |
| Cc1cc(=O)[nH]c(-n2nc(C3CC3)cc2NC(=O)C(c2ccccc2)c2ccccc2)n1 | 0.955 | 2.14 | 3.09 | 8.32 | 7.59 |
| CC1=CC(=[N+](CCO)CCO)C=C/C1=C(\c1ccc(N(CCO)CCO)cc1C)c1ccccc1Cl | 0.0871 | 0.166 | 0.0871 | 7.41 | > 10 |
| COc1cc2ncc3c(-c4ccc(C)c(C)c4)n[nH]c3c2cc1OC | 4.27 | > 10 | 5.25 | 7.59 | > 10 |

| SMILES | IC50 [1] [µM] | IC50 [2] [µM] | IC50 [3] [µM] | IC50 [4] [µM] | IC50 at 72 h [5] [µM] |
| --- | --- | --- | --- | --- | --- |
| CCC1=Nc2ccccc2N=C(NC(=O)C(C)C)[C@H]1c1ccc(F)cc1 | 2.45 | 7.24 | 8.32 | 3.8 | > 10 |
| COc1ccc(C(=O)CN2C=CCC=C2c2nc(-c3ccc(Cl)cc3)cs2)cc1 | 2.14 | 5.13 | 3.02 | > 10 | > 10 |
| CC(C)c1cc(=O)[nH]c(-n2nc(C3CC3)cc2NC(=O)COc2ccc3ccccc3c2)n1 | 1.62 | 9.33 | 8.91 | > 10 | > 10 |
| Cc1c(-c2nn(-c3nc(C4CC4)cc(C(F)(F)F)n3)c(-c3cnn(C)c3C)c2Cl)cnn1C | 1.1 | > 10 | > 10 | 0.407 | > 10 |
| C[N+]1(CCCC(=O)c2ccc3c(c2)OCCO3)CCC(c2ccccc2)C1 (stereo not given) | 2.57 | 3.8 | 2.24 | > 10 | > 10 |
| c1ccc(-c2cn3c(n2)c(-c2ccc4ccccc4n2)cc2ccccc23)cc1 | 8.13 | > 10 | > 10 | 10.5 | > 10 |
| N#Cc1c(NC(=O)Nc2cn3ccccc3c2C#N)cn2ccccc12 | 0.302 | 1.35 | 1 | > 10 | > 10 |
| COc1ccc(-c2cc(C(F)(F)F)nc(-n3nc(-c4cccc(OC)c4)c(Cl)c3-c3cccc(OC)c3)n2)cc1 | 1.51 | > 10 | 4.07 | 1.74 | > 10 |
| FC(F)Oc1ccc(-c2c[n+](-c3cccc(C(F)(F)F)c3)c3n2CCCCC3)cc1 | 2.45 | 2.14 | 8.91 | > 10 | > 10 |
| Cc1ccc(N2C(=O)c3ccccc3[C@@H]2c2c[nH]c3ccccc23)cc1 | 2.63 | 7.41 | 6.92 | 5.5 | > 10 |
| CCc1c2c(=O)n(-c3nc4ccccc4s3)[nH]c2cc(=O)n1CCCN1CCOCC1 | 4.57 | 9.55 | > 10 | 6.61 | > 10 |
| Cc1ccc(S(=O)(=O)Nc2cc3nc4ccccc4nc3n2CCc2ccccc2)cc1 | 2.34 | 10 | > 10 | 3.24 | > 10 |
| O=C(CN1C=CCC=C1c1nc(-c2ccc(Br)cc2)cs1)c1ccccc1 | 2.63 | 3.47 | 3.55 | 5.89 | > 10 |
| COc1ccc(Cl)cc1C(=O)Nc1cc(C2CC2)nn1-c1nc(C)cc(=O)[nH]1 | 1.78 | > 10 | 8.13 | > 10 | > 10 |
| Cc1c(C)n(CC(O)CNC(C)c2ccccc2)c2c(Cl)cccc12 (stereo not given) | 2 | 9.77 | 8.51 | 3.16 | 10 |
| Cc1cc(=O)[nH]c(-n2nc(C3CC3)cc2NC(=O)c2ccc(C(C)(C)C)cc2)n1 | 1.86 | > 10 | > 10 | > 10 | > 10 |
| CCCC[C@H](Oc1ccc(C(C)(C)CC)cc1C(C)(C)CC)C(=O)Nc1ccc(NC(=O)C(F)(F)C(F)(F)C(F)(F)F)c(O)c1 | 2.95 | > 10 | 3.72 | 7.24 | > 10 |
| CC(NCC(O)Cn1c(-c2ccccc2)c(-c2ccccc2)c2ccc3ccccc3c21)c1ccccc1 (stereo not given) | 1.62 | 9.12 | 7.94 | 1.95 | > 10 |
| COc1ccc(C)c2sc(N(CCCn3ccnc3)C(=O)Cc3ccc(F)cc3)nc12 | 1.95 | 4.37 | 4.37 | 2.95 | > 10 |
| CC(C)(C)[C@H]1CCc2c(sc(NC(=O)C3(F)C(F)(F)C(F)(F)C(F)(F)C(F)(F)C3(F)F)c2C#N)C1 | 2.19 | 2.95 | 2.57 | 5.75 | 4.57 |
| COc1ccc(NC(=O)C2(N(Cc3ccccc3)C(=O)Cn3nnc4ccccc43)CCCCC2)cc1 | 4.47 | > 10 | > 10 | 1.7 | > 10 |
| CNCCc1c(-c2ccccc2)[nH]n(-c2ccccc2)c1=O | 1.7 | 2.82 | 3.16 | 2.75 | > 10 |
| COc1ccc(-c2c(C(F)(F)F)n[nH]c2-c2ccc(OCc3ccccc3F)cc2O)cc1 | 1.66 | 6.31 | 3.02 | 2.88 | > 10 |
| Cc1cc(C)n(-c2nc(Nc3ccc(Cl)cc3)nc(Nc3ccc(Cl)cc3)n2)n1 | 2.19 | > 10 | 3.63 | 6.76 | > 10 |

Source: ChEMBL document CHEMBL4888484, “Replenishing the malaria drug discovery pipeline: Screening and hit evaluation of the MMV Hit Generation Library 1 (HGL1) against asexual blood stage Plasmodium falciparum ,using a nano luciferase reporter read-out” (2022)
